Data reported in US7235539B2, “6-Hydroxyequilenins as estrogenic agents” (Wyeth, priority 2002, dated 2007).
pIC50: −log10 of the molar value.

How the values were obtained:
[1] = test system: metallothionein-II mRNA in Saos-2 cells (via ERβ); assay: Regulation of metallothionein II mRNA in Saos-2 cells; type: cell-based
Description: Estrogens acting through ERβ, but not ERα can upregulate metallothionein II mRNA levels in Saos-2 cells as described by Harris [Endocrinology 142: 645–652 (2001)]. Results from this test procedure can be combined with results from the test procedure described below (ERE reporter test procedure) to generate a selectivity profile for compounds of this invention (see also WO 00/37681).

human ERβ = molecular target: T1, human ERβ (Homo sapiens, UniProt Q92731); assay: Radioligand binding competition with [3H]-17β-estradiol, ERβ; conditions: human ERβ ligand binding domain extract, read-out: ER-β IC50
T1 construct: M214–Q530 of human ERβ; Flag (C); made in house; host or cells: E. coli BL21(DE3), clarified lysate

human ERα = molecular target: T2, human ERα (Homo sapiens, UniProt P03372); assay: Radioligand binding competition with [3H]-17β-estradiol, ERα; conditions: human ERα ligand binding domain extract, read-out: ER-α IC50
T2 construct: amino acids M250–V595 of human ERα; His tag (N); made in house; host or cells: E. coli BL21(DE3), clarified lysate
T2 sequence (P03372 250-595): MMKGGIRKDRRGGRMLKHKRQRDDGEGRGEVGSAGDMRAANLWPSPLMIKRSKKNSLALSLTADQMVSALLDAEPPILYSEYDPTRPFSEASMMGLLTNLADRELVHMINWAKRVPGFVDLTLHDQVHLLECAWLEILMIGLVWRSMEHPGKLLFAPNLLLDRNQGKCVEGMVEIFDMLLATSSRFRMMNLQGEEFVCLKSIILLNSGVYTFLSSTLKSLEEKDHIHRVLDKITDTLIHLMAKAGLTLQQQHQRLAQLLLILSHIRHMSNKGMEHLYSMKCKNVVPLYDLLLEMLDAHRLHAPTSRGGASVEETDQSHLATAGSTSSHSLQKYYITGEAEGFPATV

T1 sequence (Q92731 214-530): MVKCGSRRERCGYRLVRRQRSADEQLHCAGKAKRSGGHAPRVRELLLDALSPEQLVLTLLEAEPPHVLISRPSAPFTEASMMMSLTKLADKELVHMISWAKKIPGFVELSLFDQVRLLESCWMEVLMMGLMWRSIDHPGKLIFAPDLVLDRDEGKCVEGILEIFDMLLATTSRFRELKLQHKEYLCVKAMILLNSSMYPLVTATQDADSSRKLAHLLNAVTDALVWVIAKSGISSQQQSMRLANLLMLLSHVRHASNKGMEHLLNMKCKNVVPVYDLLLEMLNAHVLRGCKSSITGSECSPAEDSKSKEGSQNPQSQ

SMILES	Fold upregulation of metallothionein-II mRNA [1]	pIC50 (human ERβ)	pIC50 (human ERα)
CC12CCc3c(cc(O)c4cc(O)ccc34)C1CCC2=O (stereo not drawn) [Compound 1, 6-Hydroxyequilenin]	11	6.91	5.66
CC12CCc3c(cc(O)c4cc(O)ccc34)C1CC[C@@H]2O (stereo partly drawn) [Compound 5, 6-Hydroxy-3,17β-dihydroequilenin]	11	7.80	6.62
